For experiment [1], the target named is T1, androgen receptor (AR) (Mus musculus, UniProt P19091).
T1 construct: in the L929 cells which express the AR but not the PR; endogenous in cells; host or cells: L929 cells
T1 sequence (P19091 1-899): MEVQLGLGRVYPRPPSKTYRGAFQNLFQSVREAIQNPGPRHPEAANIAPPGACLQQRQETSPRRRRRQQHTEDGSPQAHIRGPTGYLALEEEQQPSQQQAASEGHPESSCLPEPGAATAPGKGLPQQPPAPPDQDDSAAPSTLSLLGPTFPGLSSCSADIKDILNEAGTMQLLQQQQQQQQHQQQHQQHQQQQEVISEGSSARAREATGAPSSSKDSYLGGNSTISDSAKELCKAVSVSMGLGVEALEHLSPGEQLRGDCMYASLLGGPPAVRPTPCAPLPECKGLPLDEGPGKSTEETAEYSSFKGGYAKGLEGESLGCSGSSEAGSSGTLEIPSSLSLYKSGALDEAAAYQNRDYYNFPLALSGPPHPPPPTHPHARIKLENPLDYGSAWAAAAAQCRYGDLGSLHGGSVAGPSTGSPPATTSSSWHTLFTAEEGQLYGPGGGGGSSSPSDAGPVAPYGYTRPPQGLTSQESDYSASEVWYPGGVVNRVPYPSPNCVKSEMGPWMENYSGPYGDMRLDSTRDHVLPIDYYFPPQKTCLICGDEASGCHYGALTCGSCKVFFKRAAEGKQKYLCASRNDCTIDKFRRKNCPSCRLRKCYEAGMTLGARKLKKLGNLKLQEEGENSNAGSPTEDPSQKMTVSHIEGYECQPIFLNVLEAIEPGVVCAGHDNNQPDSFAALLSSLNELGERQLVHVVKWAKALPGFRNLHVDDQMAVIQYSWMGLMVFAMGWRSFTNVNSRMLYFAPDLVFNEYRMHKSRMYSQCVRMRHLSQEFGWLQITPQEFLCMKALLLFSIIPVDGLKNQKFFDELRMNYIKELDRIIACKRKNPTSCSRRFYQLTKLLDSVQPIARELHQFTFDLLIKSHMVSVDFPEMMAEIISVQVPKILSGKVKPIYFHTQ
The experiment can be described thus: Anti-androgenic activity, PRE-tk-luciferase reporter in L929 cells co-treated with 3 nM DHT. In kind it is cell-based. As to conditions: nine point dose response. The method, then:
(§1) The androgen receptor (AR) agonistic and antagonistic activity of the compositions of the invention in the L929 cells which express the AR but not the PR was evaluated as described in Zhang et al., Steroids, 65(10-11): 637-643 (October-November 2000).
(§2) Cells were plated in 96-well plates at 25,000 cells/well in DMEM (BioWhittaker) with 10% (v/v) fetal bovine serum (FBS). The next day, cells were infected with the adenovirus PRE-tk-luciferase reporter construct (2×10^9 pfu/ml particles) and kept in DMEM containing 10% charcoal stripped FBS for an additional 24 hours. […] To test the anti-androgenic activity, cells were co-treated with 3 nM DHT. Luciferase activity was measured 24 hours following the treatment.
Background: A reporter such as luciferase makes a cellular process visible.

Experiment [2] addresses T1, androgen receptor (AR). The experiment can be described thus: AR agonistic activity, PRE-tk-luciferase reporter in L929 cells. Format: cell-based. As to conditions: at the maximum concentration tested (i.e., 10 nM). The method, then:
as §1, §2

`Cn1c(C#N)ccc1-c1ccc2c(c1)C1(CCCCC1)C(=NC#N)N2` [5′-(5-Cyano-1-methyl-1H-pyrrol-2-yl)spiro[cyclohexane-1,3′-[3H]indol]-2′-ylidenecyanamide]: the antagonistic activity entry on androgen receptor (AR) [1] was “significant antagonistic activity”. At androgen receptor (AR) [2], the agonistic activity entry is given as “only marginal agonistic activity”.

Values taken from patent publication US8242098B2, “Methods of treating hormone-related conditions using thio-oxindole derivatives” (Wyeth LLC, priority 2002, dated 2012).
